Results as given in the supplement of paper PMC5908809.

Columns and labels:
[1] = test system: normal NK cells expanded with K562-aAPC; experiment: percent inhibition of viability; higher = more inhibition; settings: 72 h, IL-2 2.5 ng/mL
Method: (§1)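 Drug sensitivity and resistance testing on K562-aAPC-expanded normal NK cells: 5 concentrations (10-fold steps over a 10,000-fold range), 72 h at 37 °C, viability by CellTiter-Glo normalised to DMSO and benzethonium chloride controls; DSS from the fitted curve.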

[2] = test system: normal NK cells expanded with K562-aAPC; experiment: drug sensitivity score (DSS) (DSS units); higher = more sensitive; extreme values may be limits of the assay; settings: 72 h; IL-2 2.5 ng/mL
Method: as §1

[3] = test system: normal primary NK cells, pool 1 (3 donors) (IL-2 2.5 ng/mL); experiment: as above; settings: 72 h
[4] = test system: NK-YS (IL-2 2.5 ng/mL); experiment: as above; settings: 72 h
[5] = test system: KAI3 (IL-2 2.5 ng/mL); experiment: as above; settings: 72 h
[6] = test system: normal primary NK cells, pool 1 (3 donors), resting (IL-2 0 ng/mL); experiment: as above; settings: 72 h
[7] = test system: normal primary NK cells, pool 2 (3 donors) (IL-2 2.5 ng/mL); experiment: as above; settings: 72 h
[8] = test system: SNK-6 (IL-2 2.5 ng/mL); experiment: as above; settings: 72 h
[9] = test system: DERL-7 (IL-2 2.5 ng/mL); experiment: as above; settings: 72 h
[10] = test system: normal primary NK cells, pool 3 (3 donors) (IL-2 2.5 ng/mL); experiment: as above; settings: 72 h
[11] = test system: IMC-1 (IL-2 20 ng/mL); experiment: as above; settings: 72 h
[12] = test system: NK-92 (IL-2 2.5 ng/mL); experiment: as above; settings: 72 h
[13] = test system: KHYG-1 (IL-2 2.5 ng/mL); experiment: as above; settings: 72 h
[14] = test system: YT (IL-2 2.5 ng/mL); experiment: as above; settings: 72 h
[15] = test system: NKL (IL-2 2.5 ng/mL); experiment: as above; settings: 72 h
[16] = test system: normal primary NK cells, pool 1 (3 donors) (IL-2 2.5 ng/mL); experiment: percent inhibition of viability; higher = more inhibition; settings: 72 h
[17] = test system: NK-YS (IL-2 2.5 ng/mL); experiment: as above; settings: 72 h
[18] = test system: KAI3 (IL-2 2.5 ng/mL); experiment: as above; settings: 72 h
[19] = test system: normal primary NK cells, pool 1 (3 donors), resting (IL-2 0 ng/mL); experiment: as above; settings: 72 h
[20] = test system: normal primary NK cells, pool 2 (3 donors) (IL-2 2.5 ng/mL); experiment: as above; settings: 72 h
[21] = test system: SNK-6 (IL-2 2.5 ng/mL); experiment: as above; settings: 72 h
[22] = test system: DERL-7 (IL-2 2.5 ng/mL); experiment: as above; settings: 72 h
[23] = test system: normal primary NK cells, pool 3 (3 donors) (IL-2 2.5 ng/mL); experiment: as above; settings: 72 h
[24] = test system: IMC-1 (IL-2 20 ng/mL); experiment: as above; settings: 72 h
[25] = test system: NK-92 (IL-2 2.5 ng/mL); experiment: as above; settings: 72 h
[26] = test system: KHYG-1 (IL-2 2.5 ng/mL); experiment: as above; settings: 72 h
[27] = test system: YT (IL-2 2.5 ng/mL); experiment: as above; settings: 72 h
[28] = test system: NKL (IL-2 2.5 ng/mL); experiment: as above; settings: 72 h

O=C(c1ccc(OCCN2CCCCC2)cc1)c1c(-c2ccc(O)cc2)sc2cc(O)ccc12 [Raloxifene] (max concentration tested 10000 nM)
percent inhibition of viability [%]
Settings	1 nM	10 nM	100 nM	1000 nM	10000 nM
[1]	-3.9	-1.26	0.77	10.2	53.2
[16]	1.01	-6.07	1.09	-7.43	20.9
[17]	0.85	-3.33	4.79	5.35	40.5
[18]	-6.87	-0.15	5.98	4.92	96.1
[19]	2.49	-4.47	-6.62	-34	38.5
[20]	-6.02	-3.78	1.06	2.77	29.1
[21]	-9.5	-3.4	-9.29	-36.4	67.1
[22]	-6.41	2.29	1.8	13.7	68.8
[23]	-5.87	-1.12	5.04	8.98	16.6
[24]	0.84	1.43	3.84	8.59	10.4
[25]	1.94	6.91	-0.59	-1.98	92.6
[26]	-4.91	3.37	0.98	11	54.9
[27]	-1.19	5.28	-0.98	1	77
[28]	1.76	7.99	-6.69	11.2	52.2

Settings	drug sensitivity score
[2]	4.52
[3]	0.41
[4]	2.92
[5]	6.04
[6]	1.08
[7]	1.67
[8]	2.49
[9]	6.02
[10]	0.74
[11]	0
[12]	4.99
[13]	4.74
[14]	4.39
[15]	4.58

N#CC[C@H](C1CCCC1)n1cc(-c2ncnc3[nH]ccc23)cn1 [Ruxolitinib] (max concentration tested 10000 nM)
percent inhibition of viability [%]
Settings	1 nM	10 nM	100 nM	1000 nM	10000 nM
[1]	2.08	18.6	65.1	97.8	98.6
[16]	2.57	6.3	49.3	58	74.3
[17]	3.29	10.2	48.2	68.6	84.1
[18]	18.2	33.2	84.8	97.7	101
[19]	7.5	-6.83	11.8	-24.4	27.4
[20]	-1.35	14.5	50.1	65	71.7
[21]	7.33	12.7	73.5	73.9	85.4
[22]	9.24	20.8	64.2	101	101
[23]	3.79	6.55	43	64.5	74.2
[24]	1.77	-5.31	5.62	58.7	99.6
[25]	14.7	23.2	54.9	93.3	105
[26]	7.19	19.2	94.1	108	108
[27]	9.67	13.1	30.9	75.8	84.3
[28]	-1.94	49.5	75.1	94.7	101

Settings	drug sensitivity score
[2]	26.7
[3]	18.5
[4]	19.8
[5]	32.2
[6]	0.6
[7]	19.8
[8]	25.9
[9]	27.1
[10]	18
[11]	12.6
[12]	25.6
[13]	32.2
[14]	17.8
[15]	32.6
